Calls of active or inactive are those of the source. No cut-off for these calls is given here.
Experiments:
[1] = biological target: T1, MAP kinase-activated protein kinase 2 (Homo sapiens, UniProt P49137); assay: Inhibition of MK2
[2] = biological target: T1, MAP kinase-activated protein kinase 2; assay: Inhibition of MK2 in human U937 cells assessed as blockade of LPS-stimulated TNFalpha production; format: cell-based, U-937
[3] = biological target: Mitogen-activated protein kinase 9 (Homo sapiens) (UniProt P45984); assay: Inhibition of JNK2 phosphorylation in LPS-stimulated human U937 cells; format: cell-based; conditions: U-937
[4] = biological target: MAP kinase p38 (Homo sapiens) (UniProt O15264+Q15759+Q16539+P53778); assay: Inhibition of p38 phosphorylation in LPS-stimulated human U937 cells; format: cell-based; conditions: U-937

T1 sequence (P49137 whole entry): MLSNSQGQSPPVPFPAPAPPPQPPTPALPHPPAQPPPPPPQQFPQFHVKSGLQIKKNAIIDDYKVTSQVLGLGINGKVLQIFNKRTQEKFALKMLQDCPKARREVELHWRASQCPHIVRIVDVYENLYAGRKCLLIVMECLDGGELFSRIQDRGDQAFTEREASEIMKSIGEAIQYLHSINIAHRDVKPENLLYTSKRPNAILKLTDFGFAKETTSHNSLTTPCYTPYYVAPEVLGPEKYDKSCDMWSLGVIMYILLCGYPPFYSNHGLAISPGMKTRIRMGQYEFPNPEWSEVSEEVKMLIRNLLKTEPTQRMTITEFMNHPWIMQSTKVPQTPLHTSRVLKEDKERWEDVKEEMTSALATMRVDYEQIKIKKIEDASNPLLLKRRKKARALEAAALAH
Chain of Mitogen-activated protein kinase 9 (Homo sapiens) (P45984 whole entry, looked up): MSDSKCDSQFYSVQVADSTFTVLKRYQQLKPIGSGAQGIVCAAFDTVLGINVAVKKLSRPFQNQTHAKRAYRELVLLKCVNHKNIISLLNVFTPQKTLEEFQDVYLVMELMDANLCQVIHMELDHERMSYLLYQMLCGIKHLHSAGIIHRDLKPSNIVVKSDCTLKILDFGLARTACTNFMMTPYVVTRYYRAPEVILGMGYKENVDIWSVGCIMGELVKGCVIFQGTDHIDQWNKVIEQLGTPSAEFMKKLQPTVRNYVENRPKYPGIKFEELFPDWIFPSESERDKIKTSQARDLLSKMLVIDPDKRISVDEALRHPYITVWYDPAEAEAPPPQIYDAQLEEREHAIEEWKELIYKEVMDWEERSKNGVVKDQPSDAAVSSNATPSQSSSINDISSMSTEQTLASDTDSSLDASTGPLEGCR

SMILES	IC50 [1]	IC50 [2]	Activity [3]	Activity [4]
COc1ccc2sc3c(c2c1)NC[C@@H](CN1CCOCC1)NC3=O	> 20000 nM			
COc1ccc2sc3c(c2c1)NC[C@@H](CN1CCCC1)NC3=O	> 20000 nM			
COCCOc1ccc2sc3c(c2c1)NC[C@@H](C)NC3=O	270 nM	3100 nM		
CC(C)COc1ccc2sc3c(c2c1)NC[C@@H](C)NC3=O	30 nM	1800 nM		
CCC[C@@H]1CNc2c(sc3ccc(OC)cc23)C(=O)N1	1520 nM	5450 nM		
COc1ccc2sc3c(c2c1)NC[C@@H](CO)NC3=O	14 nM	400 nM	inactive	inactive
C[C@@H]1CNc2c(sc3ccc(O)cc23)C(=O)N1	190 nM	3500 nM		
COc1ccc2sc3c(c2c1)NC[C@@H](CNCc1ccccc1)NC3=O	570 nM	21000 nM		
COc1ccc2sc3c(c2c1)CCCNC3=O	500 nM	4700 nM		
COC(=O)COc1ccc2sc3c(c2c1)NC[C@@H](C)NC3=O	3440 nM	78000 nM		
COc1cccc(COc2ccc3sc4c(c3c2)NC[C@@H](C)NC4=O)c1	110 nM	4600 nM		
CCCNC[C@@H]1CNc2c(sc3ccc(OC)cc23)C(=O)N1	450 nM	14900 nM		
C[C@@H]1CNc2c(sc3ccc(OCC4CC4)cc23)C(=O)N1	1320 nM	27000 nM		
COc1ccc2sc3c(c2c1)NC[C@@H](CN(C)Cc1ccccc1)NC3=O	1910 nM	24000 nM		
CCNC[C@@H]1CNc2c(sc3ccc(OC)cc23)C(=O)N1	570 nM	21600 nM		
COc1ccc2sc3c(c2c1)NC[C@@H](CN)NC3=O	5 nM	2600 nM		
COc1ccc2sc3c(c2c1)SCCNC3=O	1090 nM	5500 nM		
COc1ccc2sc3c(c2c1)NCCNC3=O	180 nM	1400 nM		
